Reference: US4812472A, “Isoxazole compounds and pharmaceutical compositions containing them for treatment and prophylaxis of retroviruses diseases” (Chemie Linz Akteingesellschaft, priority 1985, dated 1989)
≈ marks a conversion by molar mass, not a printed value.

What was measured:
Rhino type 3 = experiment: Virus inhibition test (MIC); assay type: cell-based, rhinovirus type 3; settings: Enterovirus, in vitro, read-out: Minimum inhibitory conc. (MIC)
Rhino type 16 = experiment: Virus inhibition test (MIC); assay type: cell-based, rhinovirus type 16; settings: Enterovirus, in vitro, read-out: Minimum inhibitory conc. (MIC)
Rhino type 26 = experiment: Virus inhibition test (MIC); assay type: cell-based, rhinovirus type 26; settings: Enterovirus, in vitro, read-out: Minimum inhibitory conc. (MIC)
Rhino type 32 = experiment: Virus inhibition test (MIC); assay type: cell-based, rhinovirus type 32; settings: Enterovirus, in vitro, read-out: Minimum inhibitory conc. (MIC)
Rhino type 37 = experiment: Virus inhibition test (MIC); assay type: cell-based, rhinovirus type 37; settings: Enterovirus, in vitro, read-out: Minimum inhibitory conc. (MIC)
Rhino type 48 = experiment: Virus inhibition test (MIC); assay type: cell-based, rhinovirus type 48; settings: Enterovirus, in vitro, read-out: Minimum inhibitory conc. (MIC)
Rhino type 55 = experiment: Virus inhibition test (MIC); assay type: cell-based, rhinovirus type 55; settings: Enterovirus, in vitro, read-out: Minimum inhibitory conc. (MIC)
Echo type B-9 = experiment: Virus inhibition test (MIC); assay type: cell-based, echovirus type B-9; settings: Echovirus, in vitro, read-out: Minimum inhibitory conc. (MIC)
Polio type 2 = experiment: microbe, parasite or virus in culture; assay type: cell-based, poliovirus type 2; settings: Enterovirus C, read-out: Minimum inhibitory conc. (MIC)
[1] = Toxicity control, minimum toxic concentration (MTC); assay type: cell-based; settings: cell density still lower than in the cell control
HIV (HTLV-IIIB) = experiment: microbe, parasite or virus in culture; assay type: cell-based
ATH8 cell viability = settings: human, ath8 cells

SMILES: Cc1cc(CCCCCCCOc2ccc(C3=NCCO3)s2)on1 [Compound A, 5-(7-(5-(4,5-dihydro-2-oxazolyl)-2-thienyl)-oxyheptyl)-3-methyl-isoxazole]
- MIC (Rhino type 3): 0.03 µg/mL (≈ 0.0861 µM)
- MIC (Rhino type 16): 0.3 µg/mL (≈ 0.861 µM)
- MIC (Rhino type 26): 0.3 µg/mL (≈ 0.861 µM)
- MIC (Rhino type 32): 1 µg/mL (≈ 2.87 µM)
- MIC (Rhino type 37): 0.03 µg/mL (≈ 0.0861 µM)
- MIC (Rhino type 48): 0.1 µg/mL (≈ 0.287 µM)
- MIC (Rhino type 55): 0.3 µg/mL (≈ 0.861 µM)
- MIC (Echo type B-9): 0.03 µg/mL (≈ 0.0861 µM)
- MIC (Polio type 2): 0.1 µg/mL (≈ 0.287 µM)
- MCC [1]: 10 µg/mL
- inhibitory effect on HIV-induced cytopathogenicity in ATH8 cells (HIV (HTLV-IIIB); ATH8 cells): marked inhibitory effect
- ID50/MIC50 (in vitro therapeutic index) (HIV (HTLV-IIIB); ATH8 cells, day 6-7 after virus inoculation): 175
- ID50/MIC50 (in vitro therapeutic index) (HIV (HTLV-IIIB); ATH8 cells, day 10 after virus inoculation): 175
- EC50 (HIV (HTLV-IIIB); Human immunodeficiency virus 1, IIIB, ATH-8, 168 h, read-out: MIC50): 0.2 µM
- CC50 (ATH8 cell viability): 35 µM
- CC50 at 240 h (ATH8 cell viability): 35 µM

SMILES: Cc1cc(CCCCCCCOc2csc(C3=NCCO3)c2)on1 [Compound B, 5-(7-(2-(4,5-dihydro-2-oxazolyl)-4-thienyl)oxyheptyl)-3-methyl-isoxazole]
- MIC (Rhino type 3): 0.1 µg/mL (≈ 0.287 µM)
- MIC (Rhino type 16): 1 µg/mL (≈ 2.87 µM)
- MIC (Rhino type 26): 1 µg/mL (≈ 2.87 µM)
- MIC (Rhino type 32): 3 µg/mL (≈ 8.61 µM)
- MIC (Rhino type 37): 0.03 µg/mL (≈ 0.0861 µM)
- MIC (Rhino type 48): 1 µg/mL (≈ 2.87 µM)
- MIC (Rhino type 55): 0.3 µg/mL (≈ 0.861 µM)
- MIC (Echo type B-9): 1 µg/mL (≈ 2.87 µM)
- MIC (Polio type 2): 1 µg/mL (≈ 2.87 µM)
- MCC [1]: 10 µg/mL
